Experimental data published in patent EP0179667B1, “N6-substituted adenosines” (priority 1984, dated 1986).

Tested on: Swiss-Webster male mice
Assay: Mouse Activity and Screen Test Procedure (MAST): screen test (ST)
Assay type: in vivo
Details: one hour postinjection
Text: The compounds of the invention are new chemical substances which are useful as pharmaceutical agents for the treatment of psychoses. The antipsychotic activity of representative compounds of the invention was established by the Mouse Activity and Screen Test Procedrue (MAST) described below.
Nine unfasted Swiss-Webster male mice weighing 20-30 g equally divided into three groups for each drug dose to be tested. That is, data for each dose level was generated by three separated groups of three mice each.
A minimum of three dose levels (10, 30, and 100 mg/kg) are tested for each drug. Treatments are administered intraperitoneally one hour prior to testing. All dosages are calculated as parent compound and given in volumes of 10 ml/kg. Compounds are dissolved or suspended in 0.2% Methocel. Control animals are injected with Methocel.
Testing: A two part testing procedure is started one hour postinjection. First, the screen test (ST) is performed (see Pharmac. Biochem. Behav. 6, 351-353, 1977). Briefly this test consists of placing mice on individual wire screens which are then rotated 180 degrees at the start of a 60 second observation period. The number of mice falling off the inverted screen is recorded.
Data: The data obtained from the screen test are expressed as percent of mice falling off the screen. Data derived from locomotor activity of drug treated mice are compared to the activity of vehicle treated animals and are expressed as percent inhibition of spontaneous locomotion. All percentages reported for inhibition of locomotion (LI) are based upon data accumulated for one hour. Both phases of testing are graded: A=60-100%; G=31-59%; and N=0-30%. An overall dose rating is obtained by the following criteria:
LAD refers to the lowest dose at which an A rating is achieved. […] Utilizing this procedure, an overall dose rating of A was obtained for the noted compound at the indicated dose. The compounds are identified in the Examples.

| Compound | Screen test failure (3 mg/kg intraperitoneally) [%] | Screen test failure (10 mg/kg intraperitoneally) [%] | Screen test failure (30 mg/kg intraperitoneally) [%] | Screen test failure (0.3 mg/kg intraperitoneally) [%] | Screen test failure (1 mg/kg intraperitoneally) [%] | Screen test failure (100 mg/kg intraperitoneally) [%] | Screen test failure (0.1 mg/kg intraperitoneally) [%] | Screen test failure (0.03 mg/kg intraperitoneally) [%] | Screen test failure (9.0 mg/kg intraperitoneally) [%] |
| --- | --- | --- | --- | --- | --- | --- | --- | --- | --- |
| OC[C@H]1O[C@@H](n2cnc3c(NCC4CCCCc5ccccc54)ncnc32)[C@H](O)[C@@H]1O (stereo partly shown) [Example 28, N^6-(1-benzocycloheptyl)methyladenosine] | 0 | 11 | 0 |  |  |  |  |  |  |
| COc1cccc2c1CCCC2Nc1ncnc2c1ncn2[C@@H]1O[C@H](CO)[C@@H](O)[C@H]1O (stereo partly shown) [Example 7, N^6-[5-Methoxy-1-aminotetralin]-adenosine] | 11 | 22 | 66 | 0 | 0 |  |  |  |  |
| OC[C@H]1O[C@@H](n2cnc3c(NC4CCCc5ccc(O)cc54)ncnc32)[C@H](O)[C@@H]1O (stereo partly shown) [Example 17] | 0 | 0 | 22 |  |  |  |  |  |  |
| COc1ccc2c(c1)CCCC2Nc1ncnc2c1ncn2[C@@H]1O[C@H](CO)[C@@H](O)[C@H]1O (stereo partly shown) [Example 6, N^6-[1-(6-Methoxy)-tetralinyl]-adenosine] | 0 | 0 | 44 |  | 0 | 44 |  |  |  |
| OC[C@H]1O[C@@H](n2cnc3c(NCC4=CCCCc5ccccc54)ncnc32)[C@H](O)[C@@H]1O [Example 26, N^6-(1-benzocycloheptenyl)methyladenosine] | 0 | 22 | 22 |  |  |  |  |  |  |
| OC[C@H]1O[C@@H](n2cnc3c(NCC4(O)CCc5ccccc54)ncnc32)[C@H](O)[C@@H]1O (stereo partly shown) [Example 25, N^6-[2,3-dihydro-1-hydroxy-1H-inden-1-yl]methyladenosine] | 11 | 22 | 66 |  |  |  |  |  |  |
| OC[C@H]1O[C@@H](n2cnc3c(NCC4(O)CCCCc5ccccc54)ncnc32)[C@H](O)[C@@H]1O (stereo partly shown) [Example 27, N^6-(1-hydroxy-1-benzocycloheptyl]methyladenosine] | 0 | 11 | 0 |  |  |  |  |  |  |
| OC[C@H]1O[C@@H](n2cnc3c(NCC4CCc5ccccc54)ncnc32)[C@H](O)[C@@H]1O (stereo partly shown) [Example 21, N^6-[2,3-dihydro-1H-inden-1-yl]methyladenosine] | 0 | 22 | 55 | 0 | 0 |  |  |  |  |
| OC[C@H]1O[C@@H](n2cnc3c(NCC4(O)CCCc5ccccc54)ncnc32)[C@H](O)[C@@H]1O (stereo partly shown) [Example 23, N^6-[1-hydroxy-1-tetralinyl]methyl adenosine] | 0 | 0 | 22 |  |  |  |  |  |  |
| Cc1cc(C)c2c(c1)C(Nc1ncnc3c1ncn3[C@@H]1O[C@H](CO)[C@@H](O)[C@H]1O)CCC2 (stereo partly shown) [Example 18, N^6-[1-(5,7-dimethyl)-tetralinya]-adenosine] | 11 | 0 | 0 |  | 11 |  |  |  |  |
| OC[C@H]1O[C@@H](n2cnc3c(NCC4=CCc5ccccc54)ncnc32)[C@H](O)[C@@H]1O [Example 22, N^6-[1H-inden-3-yl]methyladenosine] | 22 | 11 | 55 | 11 | 0 |  | 0 |  |  |
| CC1CCc2ccccc2C1Nc1ncnc2c1ncn2[C@@H]1O[C@H](CO)[C@@H](O)[C@H]1O (stereo partly shown) [Example 4, N^6-[1-(2-Methyl)-tetralinyl]-adenosine] |  | 77 | 88 | 11 |  | 77 | 0 | 0 |  |
| COc1cccc2c1CCC[C@@H]2Nc1ncnc2c1ncn2[C@@H]1O[C@H](CO)[C@@H](O)[C@H]1O [Example 10, (S)-N^6-[5-methoxy-1-aminotetralin]-adenosine] | 22 | 44 | 66 | 11 | 22 |  |  |  |  |
| CC(=O)OC[C@H]1O[C@@H](n2cnc3c(NC4CCCc5ccccc54)ncnc32)[C@H](O)[C@@H]1O (stereo partly shown) [Example 15, N^6-(1-tetralinyl)-5'-acetyl-adenosine] | 22 | 55 | 55 | 11 | 22 |  |  |  |  |
| OC[C@H]1O[C@@H](n2cnc3c(NCC4=CCCc5ccccc54)ncnc32)[C@H](O)[C@@H]1O [Example 24, N^6-[3,4-dihydro-1-naphthalenyl]methyladenosine] | 22 | 22 | 11 | 0 | 0 |  |  |  |  |
| COc1ccc2c(c1)C(Nc1ncnc3c1ncn3[C@@H]1O[C@H](CO)[C@@H](O)[C@H]1O)CCC2 (single isomer, unassigned) [Example 8] | 11 | 22 | 65 | 11 | 11 |  |  |  |  |
| OC[C@H]1O[C@@H](n2cnc3c(NC4CCCc5ccccc54)ncnc32)[C@H](O)[C@@H]1O (stereo partly drawn) [Example 2, (R)-N^6-[1-Tetralinyl]-adenosine] | 22 |  | 66 | 0 | 11 |  | 0 |  | 33 |
| CC(=O)Oc1ccccc1C(=O)OC[C@H]1O[C@@H](n2cnc3c(NC4CCCc5ccccc54)ncnc32)[C@H](O)[C@@H]1O (stereo partly shown) [Example 14, N^6-(1-tetralinyl)-5'-O-(O-acetylsalicoyl)adenosine] | 0 | 0 | 22 |  | 0 |  |  |  |  |
